In patent US8466176B2 (priority 2008, dated 2013):

Test: logP(HCOOH) reported with HPLC/MS
[1] = method [b]: LC-MS, pH 2.7 with 0.1% formic acid in water and acetonitrile (0.1% formic acid), linear gradient 10% to 95% acetonitrile
[2] = HCOOH (formic acid), logP(HCOOH), HPLC/MS
[3] = method [b]: LC-MS at pH 2.7 with 0.1% formic acid in water and acetonitrile (0.1% formic acid), linear gradient 10% to 95% acetonitrile
[4] = reversed phase HPLC column, pH 2.7, log p, method [b]: LC-MS at pH 2.7 with 0.1% formic acid in water and acetonitrile (0.1% formic acid), linear gradient 10% to 95% acetonitrile

| Compound | log p [1] | log p [3] | also measured |
| --- | --- | --- | --- |
| CCc1ccc(C#Cc2cccc(CON=C(c3ccccc3)c3nnnn3C)n2)cc1 [Example 230] | 4.81^[b] | – | – |
| Cc1ccc(C#Cc2cccc(CON=C(c3ccccc3)c3nnnn3C)n2)cc1 [Example 231] | 4.44^[b] | – | – |
| Cn1nnnc1C(=NOCc1cccc(C#Cc2ccc(N3CCCCC3)cc2)n1)c1ccccc1 [Example 232] | 4.81^[b] | – | – |
| Cn1nnnc1C(=NOCc1cccc(C#Cc2cc(F)cc(F)c2)n1)c1ccccc1 [Example 233] | 4.31^[b] | – | – |
| Cn1nnnc1C(=NOCc1cccc(C#Cc2ccc(Oc3ccccc3)cc2)n1)c1ccccc1 [Example 234] | 5.08^[b] | – | – |
| CCCCCCC#Cc1cccc(CON=C(c2ccccc2)c2nnnn2C)n1 [Example 235] | 5.11^[b] | – | – |
| Cn1nnnc1C(=NOCc1cccc(C#CCC2CCCC2)n1)c1ccccc1 [Example 236] | 4.78^[b] | – | – |
| Cn1nnnc1C(=NOCc1cccc(C#CCCC2CCCCC2)n1)c1ccccc1 [Example 237] | 5.62^[b] | – | – |
| Cn1nnnc1C(=NOCc1cccc(C#CCc2ccccc2)n1)c1ccccc1 [Example 238] | 4.09^[b] | – | – |
| Cn1nnnc1C(=NOCc1cccc(C#CCCCC#N)n1)c1ccccc1 [Example 239] | 2.9^[b] | – | – |
| COC(C)(C)C#Cc1cccc(CON=C(c2ccccc2)c2nnnn2C)n1 [Example 240] | 3.42^[b] | – | – |
| CCCOC(C)(C)C#Cc1cccc(CON=C(c2ccccc2)c2nnnn2C)n1 [Example 241] | 4.31^[b] | – | – |
| Cn1nnnc1C(=NOCc1cccc(C#CCN2CCOCC2)n1)c1ccccc1 [Example 242] | 1.44^[b] | – | – |
| CCSCC#Cc1cccc(CON=C(c2ccccc2)c2nnnn2C)n1 [Example 243] | 3.69^[b] | – | – |
| CCCc1ccc(C#Cc2cccc(CON=C(c3ccccc3)c3nnnn3C)n2)cc1 [Example 244] | 5.23^[b] | – | – |
| Cn1nnnc1C(=NOCc1cccc(C#Cc2ccc(C(C)(C)C)cc2)n1)c1ccccc1 [Example 245] | 5.44^[b] | – | – |
| CCCOc1ccc(C#Cc2cccc(CON=C(c3ccccc3)c3nnnn3C)n2)cc1 [Example 246] | 4.86^[b] | – | – |
| Cn1nnnc1C(=NOCc1cccc(C#Cc2ccccc2F)n1)c1ccccc1 [Example 247] | 4.06^[b] | – | – |
| Cn1nnnc1C(=NOCc1cccc(C#Cc2cccc(F)c2)n1)c1ccccc1 [Example 248] | 4.16^[b] | – | – |
| Cn1nnnc1C(=NOCc1cccc(C#Cc2cccc(OC(F)(F)F)c2)n1)c1ccccc1 [Example 249] | 4.75^[b] | – | – |
| Cn1nnnc1C(=NOCc1cccc(C#Cc2ccc(Cl)cc2)n1)c1ccccc1 [Example 250] | 4.54^[b] | – | – |
| CN(C)c1ccc(C#Cc2cccc(CON=C(c3ccccc3)c3nnnn3C)n2)cc1 [Example 251] | 4.29^[b] | – | – |
| Cn1nnnc1C(=NOCc1cccc(C#CCCO)n1)c1ccccc1 [Example 253] | 2.23^[b] | – | – |
| CCC(=O)OCC#Cc1cccc(CON=C(c2ccccc2)c2nnnn2C)n1 [Example 254] | 3.29^[b] | – | – |

| Compound | log p [1] | log p [3] | also measured |
| --- | --- | --- | --- |
| Cn1nnnc1C(=NOCc1cccc(C#CCOCc2ccccc2)n1)c1ccccc1 [Example 255] | 3.96^[b] | – | – |
| CCCOc1ccc(C#Cc2nc(CON=C(c3ccccc3)c3nnnn3C)cs2)cc1 [Example 256] | 5.03^[b] | – | – |
| CC(C)c1ccc(C#Cc2nc(CON=C(c3ccccc3)c3nnnn3C)cs2)cc1 [Example 257] | 5.29^[b] | – | – |
| CCCCOc1ccc(C#Cc2nc(CON=C(c3ccccc3)c3nnnn3C)cs2)cc1 [Example 258] | 5.44^[b] | – | – |
| Cn1nnnc1C(=NOCc1csc(C#Cc2cccc(C#N)c2)n1)c1ccccc1 [Example 259] | 3.76^[b] | – | – |
| Cn1nnnc1C(=NOCc1csc(C#Cc2ccccc2F)n1)c1ccccc1 [Example 260] | 4.15^[b] | – | – |
| CCCC#Cc1nc(CON=C(c2ccccc2)c2nnnn2C)cs1 [Example 261] | – | – | log p (method [a]: HPLC on reversed phase columns, pH 2.3 with 0.1% phosphoric acid and acetonitrile as eluent): 3.89^[a] |
| Cn1nnnc1C(=NOCc1csc(C#Cc2ccc(F)cc2)n1)c1ccccc1 [Example 262] | 4.16^[b] | – | – |
| Cn1nnnc1C(=NOCc1csc(C#CCOCc2ccccc2)n1)c1ccccc1 [Example 263, N-({2-[3-(benzyloxy)prop-1-yn-1-yl]-1,3-thiazol-4-yl}methoxy)-1-(1-methyl-1H-tetrazol-5-yl)-1-phenylmethanimine] | – | – | chromatographic logP [2]: 4.04; chromatographic logP (reversed phase HPLC column, pH 2.7, log p, method [b]: LC-MS, pH 2.7 with 0.1% formic acid in water and acetonitrile (0.1% formic acid), linear gradient 10% to 95% acetonitrile): 4.04 |
| Cn1nnnc1C(=NOCc1csc(C#Cc2cccc(F)c2)n1)c1ccccc1 [Example 264] | 4.19^[b] | – | – |
| Cn1nnnc1C(=NOCc1csc(C#Cc2cccc(OC(F)(F)F)c2)n1)c1ccccc1 [Example 265] | 4.81^[b] | – | – |
| Cn1nnnc1C(=NOCc1csc(C#Cc2ccc(OC(F)(F)F)cc2)n1)c1ccccc1 [Example 266] | 4.89^[b] | – | – |
| Cn1nnnc1C(=NOCc1csc(C#Cc2ccccc2C(F)(F)F)n1)c1ccccc1 [Example 267] | – | 4.51^[b] | – |
| CCCCCON(C(=O)OC(C)(C)C)c1cccc(CON=C(c2ccccc2)c2nnnn2C)n1 [Example 268, tert-butyl {6-[({[(1-methyl-1H-tetrazol-5-yl)(phenyl)methylene]amino}oxy)methyl]pyridin-2-yl}(pentyloxy)carbamate] | – | – | chromatographic logP [2]: 5.25; chromatographic logP [4]: 5.25 |
| CCCCCONc1cccc(CON=C(c2ccccc2)c2nnnn2C)n1 [Example 269, 6-[({[(1-methyl-1H-tetrazol-5-yl)(phenyl)methylene]amino}oxy)methyl]-(pentyloxy)pyridin-2-amine] | – | 3.87^[b] | logP(HCOOH) (HPLC/MS): 3.87 |
| CCCCON(C(=O)OC(C)(C)C)c1cccc(CON=C(c2ccccc2)c2nnnn2C)n1 [Example 280] | – | 4.75^[b] | – |
| Cn1nnnc1C(=NOCc1cccc(N(OCCc2ccccc2)C(=O)OC(C)(C)C)n1)c1ccccc1 [Example 281] | – | 4.89^[b] | – |
| Cn1nnnc1C(=NOCc1cccc(N(OCc2ccccc2)C(=O)OC(C)(C)C)n1)c1ccccc1 [Example 282] | – | 4.65^[b] | – |
| Cn1nnnc1C(=NOCc1cccc(N(OCC2CCCCC2)C(=O)OC(C)(C)C)n1)c1ccccc1 [Example 283] | – | 6.25[b] | – |
| Cn1nnnc1C(=NOCc1cccc(NOCC2CCCCC2)n1)c1ccccc1 [Example 284] | – | 4.44^[b] | – |
| Cn1nnnc1C(=NOCc1cccc(NOCc2ccccc2)n1)c1ccccc1 [Example 285] | – | 3.14^[b] | – |
| CCCCONc1cccc(CON=C(c2ccccc2)c2nnnn2C)n1 [Example 286] | – | 3.39^[b] | – |
| Cn1nnnc1C(=NOCc1cccc(NOCCc2ccccc2)n1)c1ccccc1 [Example 287] | – | 3.69^[b] | – |
| Cn1nnnc1C(=NOCc1cccc(NCC2CC2)n1)c1cccc(F)c1 [Example 290] | – | 1.98^[b] | – |

| Compound | log p [1] | log p [3] | also measured |
| --- | --- | --- | --- |
| Cn1nnnc1C(=NOCc1cccc(NCCC2CCCCC2)n1)c1cccc(F)c1 [Example 291] | – | 3.27^[b] | – |
| CSc1cccc(C(=NOCc2cccc(NCC3CCCCC3)n2)c2nnnn2C)c1 [Example 292] | – | 3.02^[b] | – |
| CCc1ccc(C#Cc2nc(CON=C(c3cccc(F)c3)c3nnnn3C)cs2)cc1 [Example 293] | – | 5^[b] | – |
| CCOc1ccc(C#Cc2nc(CON=C(c3cccc(F)c3)c3nnnn3C)cs2)cc1 [Example 294] | – | 4.62^[b] | – |
| CCCCCCNc1cccc(CON=C(c2cccc(SC)c2)c2nnnn2C)n1 [Example 296] | – | 2.78^[b] | – |
| CCCCCCNc1nc(CON=C(c2cccc(SC)c2)c2nnnn2C)cs1 [Example 297] | – | – | chromatographic logP [4]: 3.92 |
| CSc1cccc(C(=NOCc2cccc(NCCC3CCCCC3)n2)c2nnnn2C)c1 [Example 298] | – | 3.17^[b] | – |
| CSc1cccc(C(=NOCc2csc(Br)n2)c2nnnn2C)c1 [Example 299] | – | 3.55^[b] | – |
| Cn1nnnc1C(=NOCc1cccc(NC2CC3CCC2C3)n1)c1ccccc1 (centres unmarked) [Example 300] | – | 2.45^[b] | – |
| CCCCC#Cc1nc(CON=C(c2cccc(SC)c2)c2nnnn2C)cs1 [Example 301] | – | 4.78^[b] | – |
| CSc1cccc(C(=NOCc2csc(C#CC3CCCC3)n2)c2nnnn2C)c1 [Example 302] | – | – | chromatographic logP [4]: 4.86 |
| CSc1cccc(C(=NOCc2csc(C#CC3CC3)n2)c2nnnn2C)c1 [Example 303] | – | 3.99^[b] | – |
| CSc1cccc(C(=NOCc2csc(C#CC3CCCCC3)n2)c2nnnn2C)c1 [Example 304] | – | 5.29^[b] | – |
| CSc1cccc(C(=NOCc2csc(NCCCc3ccccc3)n2)c2nnnn2C)c1 [Example 305] | – | 3.71^[b] | – |
| CC(C)CSC(=O)Nc1cccc(CON=C(c2ccccc2)c2nnnn2C)n1 [Example 308] | – | 4.21^[b] | – |
| Cn1nnnc1C(=NOCc1cccc(NC(=O)SC(C)(C)C)n1)c1ccccc1 [Example 309] | – | 4.19^[b] | – |
| CCCCCCNc1cccc(CON=C(c2cccc(N(C)C)c2)c2nnnn2C)n1 [Example 311] | – | – | chromatographic logP [4]: 2.44 |
| Cc1cccc(NC=O)n1 [N-(6-methylpyridin-2-yl)formamide] | – | – | chromatographic logP (logP(HCOOH), HPLC/MS): 0.45 |
| CCCCCCN(C=O)c1cccc(C)[n+]1[O-] [N-hexyl-N-(6-methyl-1-oxidopyridin-2-yl)formamide] | – | – | chromatographic logP [2]: 1.82 |
| CCCCCCN(C=O)c1cccc(C)n1 [N-hexyl-N-(6-methylpyridin-2-yl)formamide] | – | – | chromatographic logP [2]: 3.46 |
| CSc1cccc(C(=NO)c2nnnn2C)c1 [N-hydroxy-1-[3-(methylsulfanyl)phenyl]-1-(1-methyl-1H-tetrazol-5-yl)methanimine] | – | – | chromatographic logP [2]: 1.98 |
| CON(C)C(=O)c1cccc(SC)c1 [N-methoxy-N-methyl-3-(methylsulfanyl)benzamide] | – | – | chromatographic logP (logP(HCOOH), HPLC/MS): 1.89 |
| CCCCSC(=O)Nc1cccc(CON=C(c2ccccc2)c2nnnn2C)n1 [S-butyl {6-[({[(1-methyl-1H-tetrazol-5-yl)(phenyl)methylene]amino}oxy)methyl]pyridin-2-yl}carbamothioate] | – | – | chromatographic logP [2]: 4.25 |
